Results: patent publication US20180042874A1, “METHOD FOR TREATING OSTEOPOROSIS” (China Medical University, priority 2016, published 2018)

Experiment: Body weight in ovariectomized osteoporosis rat model
Type: in vivo, Sprague-Dawley (SD) female rats
Method: Inducing osteoporosis animal models and experimental methods: • 1. 6-month old Sprague-Dawley (SD) female rats were purchased; • 2. These rats were divided into 7 groups, of which Group 1 was given pseudo-surgery, Group 2-7 underwent bilateral ovariectomies; • 3. On the 6th day after surgery, 1 mL/kg of vehicle alone was given orally to Group 1, Group 2 daily, Zoledronic Acid and Prolia were administered weekly by injections to Group 3, Group 4, respectively; 1, 3, 10 mg/kg of the compound of formula I was given orally every 3 days to Groups 5-7, respectively; • 4. Body weight and bone density were measured weekly, blood was drawn until the 118th day; • 5. Rats were then sacrificed to obtain kidneys, livers and rat tibia; • 6. Data were consolidated and processed.

Molecule | effect on body weight (ovariectomized rats) | effect on body weight (rat, in vivo)
O=P(O)(O)C(O)(Cn1ccnc1)P(=O)(O)O [Zoledronic acid] | decreased the body weight | 
Proliaor: commercially available drug, injected weekly as comparator in ovariectomized rats |  | increased the body weight
